Reference: patent US11312727B1, “Macrocyclic flu endonuclease inhibitors” (Janssen BioPharma, Inc., priority 2018, dated 2022)

How the values were obtained:
[1] = system: Influenza strain A549 A/WSN/33 (H1N1); test: microbe, parasite or virus in culture; type: cell-based; settings: Influenza A virus, A549, 20 h, A549 cells, influenza A/WSN/33 (H1N1), 20 hours incubation; read-out: A549_A(H1N1) EC50
in vitro = settings: human, CC50, uninfected A549 cells, CellTiter-Glo

| SMILES | EC50 [1] [nM] | CC50 (in vitro) [nM] |
| --- | --- | --- |
| CC[C@@H]1/C=C/COc2c(Cl)cccc2[C@H](c2ccccc2)N2CN1C(=O)c1c(O)c(=O)ccn12 (single isomer, unassigned) [Compound 98AB, (9*R,18*S,E)-4-chloro-9-ethyl-12-hydroxy-18-phenyl-6,9-dihydro-18H-10,17-methanobenzo[b]pyrido[1,2-f][1]oxa[5,6,9]triazacyclotridecine-11,13-dione] | 2.2 | > 200 |
| O=C1c2c(O)c(=O)ccn2N2CN1C/C=C\COc1ccccc1[C@H]2c1cccc(F)c1 (single isomer, unassigned) [Compound 63A, (18*R,Z)-18-(3-fluorophenyl)-12-hydroxy-6,9-dihydro-18H-10,17-methanobenzo[b]pyrido[1,2-f][1]oxa[5,6,9]triazacyclotridecine-11,13-dione] | > 1000 | > 2000 |
| O=C1c2c(O)c(=O)ccn2N2CN1C[C@H]1C[C@@H]1COc1c(F)cccc1[C@H]2c1ccccc1 (single isomer, unassigned) [Compound 125AB, (1a*R,8*S,17a*R)-4-fluoro-14-hydroxy-8-phenyl-1a,2,17,17a-tetrahydro-1H,8H-9,16-methanobenzo[b]cyclopropa[k]pyrido[1,2-f][1]oxa[5,6,9]triazacyclotridecine-13,15-dione] | 24 | > 200 |
| O=C1c2c(O)c(=O)ccn2N2CN1CCCCOc1ccc(F)cc1[C@@H]2c1cccc(F)c1 (single isomer, unassigned) [Compound 32B, (18*S)-2-fluoro-18-(3-fluorophenyl)-12-hydroxy-6,7,8,9-tetrahydro-18H-10,17-methanobenzo[b]pyrido[1,2-f][1]oxa[5,6,9]triazacyclotridecine-11,13-dione] | 25 | > 2000 |
| O=C1c2c(O)c(=O)ccn2N2CN1C/C=C\COc1c(ccc(F)c1F)[C@@H]2c1ccccc1C(F)F (single isomer, unassigned) [Compound 165B, (18*S,*Z)-18-(2-(difluoromethyl)phenyl)-3,4-difluoro-12-hydroxy-6,9-dihydro-18H-10,17-methanobenzo[b]pyrido[1,2-f][1]oxa[5,6,9]triazacyclotridecine-11,13-dione] | > 50 | > 100 |
| O=C1c2c(O)c(=O)ccn2N2CN1[C@H](C(F)F)/C=C/COc1cccc3c1[C@@H]2c1ccccc1SC3 (single isomer, unassigned) [Compound 163BB, (9*S,17a*R,*E)-9-(difluoromethyl)-12-hydroxy-2,6,9,17a-tetrahydro-3,4-(epiprop[1]en[1]yl[3]ylidene)-10,17-methanobenzo[6,7]thiepino[4,5-c]pyrido[1,2-f][1]oxa[5,6,9]triazacyclotridecine-11,13-dione] | > 50 | > 100 |
| O=C1c2c(O)c(=O)ccn2N2CN1CC/C=C/COc1ccccc1[C@@H]2c1ccccc1 [Compound 10A, (2S,E)-15-hydroxy-2-phenyl-12,13,14,16-tetrahydro-11H-4-oxa-1(1,3)-pyrido[2,1-f][1,2,4]triazina-3(1,2)-benzenacyclononaphan-6-ene-14,16-dione] | > 1000 | > 2000 |
| O=C1c2c(O)c(=O)ccn2N2CN1C/C=C\COc1ccc(F)cc1[C@H]2c1ccccc1 (single isomer, unassigned) [Compound 22A, (18*R,Z)-2-fluoro-12-hydroxy-18-phenyl-6,9-dihydro-18H-10,17-methanobenzo[b]pyrido[1,2-f][1]oxa[5,6,9]triazacyclotridecine-11,13-dione] | 9540 | > 1000 |
| Cc1ccccc1[C@@H]1c2ccc(F)c(F)c2OC/C=C\CN2CN1n1ccc(=O)c(O)c1C2=O (single isomer, unassigned) [Compound 155A, (18*R,*Z)-3,4-difluoro-12-hydroxy-18-(o-tolyl)-6,9-dihydro-18H-10,17-methanobenzo[b]pyrido[1,2-f][1]oxa[5,6,9]triazacyclotridecine-11,13-dione] | 1.2 | > 100 |
| O=C1c2c(O)c(=O)ccn2N2CN1C/C=C\COc1cc(F)c(F)c3c1[C@H]2c1ccccc1SC3 (single isomer, unassigned) [Compound 140D, (21a*S,*Z)-24,25-difluoro-16-hydroxy-6,10,13,21a-tetrahydro-7,8-(epiprop[1]en[1]yl[3]ylidene)-14,21-methanobenzo[6,7]thiepino[4,5-c]pyrido[1,2-f][1]oxa[5,6,9]triazacyclotridecine-15,17-dione] | 1.2 | > 50 |
| O=C1c2c(O)c(=O)ccn2N2CN1CCCCOc1ccccc1[C@H]2c1ccccc1 [Compound 8A, (18R)-12-hydroxy-18-phenyl-6,7,8,9-tetrahydro-18H-10,17-methanobenzo[b]pyrido[1,2-f][1]oxa[5,6,9]triazacyclotridecine-11,13-dione] | 13 | > 2000 |
| O=C1c2c(O)c(=O)ccn2N2CN1CC/C=C\COc1cccc3c1[C@H]2c1ccccc1CC3 (single isomer, unassigned) [Compound 28A] | 5950 | > 20000 |
| CC[C@@H]1/C=C/COc2c(ccc(F)c2F)[C@H](c2ccccn2)N2CN1C(=O)c1c(O)c(=O)ccn12 (single isomer, unassigned) [Compound 160BB, (9*R,18*R,*E)-9-ethyl-3,4-difluoro-12-hydroxy-18-(pyridin-2-yl)-6,9-dihydro-18H-10,17-methanobenzo[b]pyrido[1,2-f][1]oxa[5,6,9]triazacyclotridecine-11,13-dione] | > 50 | > 100 |
| CC[C@H]1/C=C/COc2cc(Cl)ccc2[C@@H](c2ccccc2)N2CN1C(=O)c1c(O)c(=O)ccn12 (single isomer, unassigned) [Compound 97AB] | 5.6 | > 1000 |
| O=C1c2c(O)c(=O)ccn2N2CN1C1(/C=C/COc3c(F)cccc3[C@@H]2c2ccccc2)CC1 (single isomer, unassigned) [Compound 95A, (18′*S,E)-4′-fluoro-12′-hydroxy-18′-phenyl-6′H,18′H-spiro[cyclopropane-1,9′-[10,17]methanobenzo[b]pyrido[1,2-f][1]oxa[5,6,9]triazacyclotridecine]-11′,13′-dione] | > 500 | > 1000 |
| O=C1c2c(O)c(=O)ccn2N2CN1CC[C@@H]1C[C@@H]1COc1cccc3c1[C@H]2c1ccccc1SC3 (single isomer, unassigned) [Compound 144BA, (1*S,13*S,15*S)-7-hydroxy-17-oxa-24-thia-2,3,10-triazaheptacyclo[16.12.1.12,10.03,8.013,15.022,31.025,30]dotriaconta-4,18,20,22(31),25(30),26,28-heptaene-6,9-dione] | 72.9 | > 200 |
| O=C1c2c(O)c(=O)ccn2N2CN1CC/C=C\COc1ccc(F)c3c1[C@@H]2c1cccc(F)c1SC3 (single isomer, unassigned) [Compound 151A, (1*R,13*Z)-20,25-difluoro-7-hydroxy-16-oxa-23-thia-2,3,10-triazahexacyclo[15.12.1.12,10.03,8.021,30.024,29]hentriaconta-4,7,13,17,19,21(30),24(29),25,27-nonaene-6,9-dione] | > 50 | > 100 |
| C[C@H]1/C=C/COc2ccccc2[C@H](c2ccccc2)N2CN1C(=O)c1c(O)c(=O)ccn12 (single isomer, unassigned) [Compound 29BB, (9*S, 18*S, E)-12-hydroxy-9-methyl-18-phenyl-6,9-dihydro-18H-10,17-methanobenzo[b]pyrido[1,2-f][1]oxa[5,6,9]triazacyclotridecine-11,13-dione] | 8 | > 2000 |
| O=C1c2c(O)c(=O)ccn2N2CN1CCC1C[C@@H]1COc1cccc3c1[C@@H]2c1ccccc1SC3 (single isomer, unassigned) [Compound 131AB, (1*R,13*R,15*S)-7-hydroxy-17-oxa-24-thia-2,3,10-triazaheptacyclo[16.12.1.12,10.03,8.013,15.022,31.025,30]dotriaconta-4,18,20,22(31),25(30),26,28-heptaene-6,9-dione] | 17 | > 200 |
| CC[C@@H]1/C=C/COc2cc(F)c(F)c3c2[C@H](c2ccccc2SC3)N2CN1C(=O)c1c(O)c(=O)ccn12 (single isomer, unassigned) [Compound 126AB, (9*R,17a*R,E)-9-ethyl-24,25-difluoro-12-hydroxy-2,6,9,17a-tetrahydro-3,4-(epiprop[1]en[1]yl[3]ylidene)-10,17-methanobenzo[6,7]thiepino[4,5-c]pyrido[1,2-f][1]oxa[5,6,9]triazacyclotridecine-11,13-dione] | > 100 | > 200 |
| O=C1c2c(O)c(=O)ccn2N2CN1C1(/C=C/COc3cc(F)c(F)c4c3[C@@H]2c2ccccc2SC4)CC1 (single isomer, unassigned) [Compound 108A, (17a′*R,*E)-24′,25′-difluoro-12′-hydroxy-2′,17a′-dihydro-6′H-spiro[cyclopropane-1,9′-[3,4](epiprop[1]en[1]yl[3]ylidene)[10,17]methanobenzo[6,7]thiepino[4,5-c]pyrido[1,2-f][1]oxa[5,6,9]triazacyclotridecine]-11′,13′-dione] | 840 | 22600 |
| O=C1c2c(O)c(=O)ccn2N2CN1C1(/C=C/COc3c(ccc(F)c3F)[C@H]2c2ccccc2)CCC1 [Compound 146A, (18′R,E)-3′,4′-difluoro-12′-hydroxy-18′-phenyl-6′H,18′H-spiro[cyclobutane-1,9′-[10,17]methanobenzo[b]pyrido[1,2-f][1]oxa[5,6,9]triazacyclotridecine]-11′,13′-dione] | 0.65 | > 100 |
| O=C1c2c(O)c(=O)ccn2N2CN1C1(/C=C/COc3ccccc3[C@@H]2c2ccccc2)CCC1 (single isomer, unassigned) [Compound 106B, (18′*S,E)-12′-hydroxy-18′-phenyl-6′H,18′H-spiro[cyclobutane-1,9′-[10,17]methanobenzo[b]pyrido[1,2-f][1]oxa[5,6,9]triazacyclotridecine]-11′,13′-dione] | > 100 | > 200 |
